Patent publication US20140086961A1, “USE OF CYCLODEXTRINS IN DIETS, WATER OR VACCINE ADJUVANTS TO BOOST THE IMMUNE SYSTEM OF FISH” (priority 2011, published 2014)

Columns and labels:
[1] = system: IL-1B and IL-6 gene expression in rainbow trout macrophages; assay: RT-PCR of IL-1B and IL-6 in trout macrophages with different cyclodextrins (FIG. 4); assay type: cell-based; settings: trout macrophages stimulated 30 minutes to 24 hours
Protocol: Trout macrophages were stimulated for 30 minutes to 24 hours with heptakis (2,6-di-O-methyl)-β-cyclodextrin (Heptakis); methyl-β-cyclodextrin (Methyl β); beta cyclodextrin (β CyD); 2-hydroxypropyl-β-cyclodextrin (Hydroxy β); 2-hydroxypropyl-α-cyclodextrin (Hydroxy α); gamma cyclodextrin (γ CyD). RNA was extracted and RT-PCR conducted with IL-1B and IL-6. 18s was a RNA loading control. Molecular weight standard in first lane
Since there are various forms of cyclodextrins with different side groups that appear to have different effects in mammalian macrophages, the effects of different cyclodextrins on gene expression in the trout macrophage cell cultures were tested. Trout macrophages were stimulated for 30 minutes to 24 hours with heptakis (2,6-di-O-methyl)-β-cyclodextrin (Heptakis); methyl-β-cyclodextrin (Methyl β); beta cyclodextrin (β CyD); 2-hydroxypropyl-β-cyclodextrin (Hydroxy β; 2-hydroxypropyl-α-cyclodextrin (Hydroxy α); gamma cyclodextrin (γ CyD). RNA was extracted and RT-PCR conducted with IL-1B and IL-6.
From these cell experiments, it was shown that cyclodextrin could up-regulate the innate immune system and could possibly be used as an immune agent to protect fish against pathogen challenges.

[2] = system: zebrafish larvae; assay: Larval viability during cyclodextrin treatment after first feeding; assay type: in vivo; settings: zebrafish larvae bathed with 500 μg/mL, recorded 10 days post first feeding
Protocol: The larval viability during cyclodextrin treatment was explored. The survival during treatment was compared with normal larval growth condition after first feeding (day 5 post hatch). 6 independent batches by reproduction (84 embryos by batch) of zebrafish larvae were bathed with 0 (“Control”; normal larval growth condition) or 500 μg/mL of beta cyclodextrin (“β CyD”), alpha cyclodextrin (“α CyD”) or both (“β+α CyD”; 50/50% of each). Larval survival was recorded 10 days post first feeding ([…]) and was increased with all cyclodextrin treatments (FIG. 7).

[3] = system: zebrafish larvae; assay: LPS challenge of zebrafish larvae bathed with cyclodextrin; assay type: in vivo; settings: zebrafish larvae 2 dpf, bath 67.5-500 μg/mL, then LPS 150 μg/mL Pseudomonas aeruginosa, mortality over 36 hours
Protocol: (§1) FIGS. 5A and 5B show replicates of the effects of α-cyclodextrin at various concentrations on LPS challenge. Zebrafish larvae, 2 days post-fertilization, were bathed with 0, 67.5, 125, 250 or 500 μg/mL of alpha cyclodextrin. Zebrafish larvae were then bathed with a lethal concentration (100% mortality) of LPS (150 μg/mL—Pseudomonas aeruginosa) and assessed for mortality over 36 hours. FIGS. 5A and 5B show the cumulative mortality after challenge of zebrafish larvae treated with α-cyclodextrin
as §1, with “6A” for “5A”, “6B” for “5B”, “β-cyclodextrin” for “α-cyclodextrin”, “challenge performed in replicate.” for “challenge.”, “beta” for “alpha”
To test this, zebrafish larvae, 2 days post fertilization (dpf), were bathed with 0, 67.5, 125, 250 or 500 μg/mL of beta or alpha cyclodextrin. Zebrafish larvae were then bathed with a lethal concentration (i.e., 100% mortality) of bacterial lipopolysaccharide (LPS) (150 μg/mL Pseudomonas aeurginosa). […]

[4] = system: IL-1B gene expression in trout macrophages; assay: IL-1B gene expression in primary trout macrophage culture (QPCR); assay type: cell-based, rainbow trout; settings: trout macrophages stimulated 24 hours, LPS positive control
Protocol: LPS is a positive stimulatory control. Macrophages were isolated from head kidneys of rainbow trout, plated and then stimulated with the preparations for 24 hours. RNA was extracted from cells and analyzed by QPCR for IL-1B expression. Data are means for 3 independent trials.
Standard SYBR-green based methodology was used for anti-viral and pro-inflammatory gene expression in mucosal immune system (intestine/gills/skin/spleen) to evaluate effective dose and identify the effects of β-cyclodextrins on tissue activation profiles. Briefly, 2 μg of total RNA was used for cDNA synthesis (SuperScript® III, Invitrogen) and subsequently diluted with nuclease-free water to 1 ng/μL cDNA. Gene-specific high-melting temperature primers for genes of interest were designed using NCBI/Primer-BLAST suite. […] Quantitative expression data between different times were examined by one-way ANOVA using SPSS 17 statistical software and the differences were considered significant at p<0.05.
A primary trout macrophage culture system was used to investigate how pathogens are recognized by the innate immune system in fish (MacKenzie et al., Developmental and Comparative Immunology 27:393-400 (2003); Iliev et al., Molecular Immunology 42:1215-1223 (2005); Iliev et al. FEBS Letters 579 (29):6519-6528 (2005)). […] RNA was extracted from cells and analyzed by QPCR for IL-1B expression. […]

[5] = system: trout macrophages; assay: QBlue Cell Viability Assay (resazurin reduction) in trout macrophages; assay type: cell-based, rainbow trout; settings: same cells as FIG. 1, saponin positive control
From the text: High fluorescence indicates no loss in cell viability. Cells were the same ones used in FIG. 1. Saponin is a positive control since it kills cells.
A primary trout macrophage culture system was used to investigate how pathogens are recognized by the innate immune system in fish (MacKenzie et al., Developmental and Comparative Immunology 27:393-400 (2003); Iliev et al., Molecular Immunology 42:1215-1223 (2005); Iliev et al. FEBS Letters 579 (29):6519-6528 (2005)). In this system, macrophages can be stimulated by various compounds and the expression of immune genes such as interleukin 1 B (IL-1B) or tissue necrosis factor (TNF) can be assayed as a measure of the degree of inflammatory stimulation and, thus, activation of the innate immune system. The effect of nanoparticles on the immune system of trout as an indication of the possible harmful effects of these compounds on aquatic organisms was studied. This involved exposing the cultured trout macrophages to nanoparticles and looking for effects on IL-1B and interferon alpha (IFNa) gene expression. Bacterial lipopolysaccharide (LPS) was used as a positive stimulatory control. […] RNA was extracted from cells and analyzed by QPCR for IL-1B expression. […] The effect of beta cyclodextrin on any cell viability was determined using the QBlue Cell Viability Assay Kit (BioChain) and saponin as a positive control for cell death.

[6] = system: TNF, Mx, IL-6, IL-1B, TLR, IFN, CD18, PU1 gene expression in trout macrophages; assay: RT-PCR of immune genes in trout macrophages stimulated 24 hours (FIG. 3); assay type: cell-based, rainbow trout
Protocol: Cells were stimulated for 24 hours and RNA extracted and RT-PCR conducted with TNF (tissue necrosis factor), Mx protein, IL-6 (interleukin 6), IL-1B (interleukin 1B), TLR (toll-like receptor), IFN (interferon), CD18 (cluster of differentiation 18), and PU1 (transcription factor PU1). 18S is a RNA loading control. Molecular weight standard in first lane.
The effects of cyclodextrin on the expression of several other genes such as TNF and IL-6 that are also pro-inflammatory were studied (FIG. 3). […] Cells were stimulated for 24 hours and RNA extracted and RT-PCR conducted with TNF (tissue necrosis factor), Mx protein, IL-6 (interleukin 6), IL-1B (interleukin 1B), TLR (toll-like receptor), IFN (interferon), CD18 (cluster of differentiation 18), and PU1 (transcription factor PU1). 18S is a RNA loading control. Molecular weight standard is in the first lane.

SMILES	IL-1B expression [1]	IL-6 expression [1]	larval survival versus control [2]	protection of larvae against lethal LPS challenge [3]	IL-1B expression [4]	cell viability [5]	most highly stimulated gene [6]
COC[C@H]1O[C@@H]2O[C@H]3[C@H](O)[C@@H](OC)[C@@H](O[C@H]4[C@H](O)[C@@H](OC)[C@@H](O[C@H]5[C@H](O)[C@@H](OC)[C@@H](O[C@H]6[C@H](O)[C@@H](OC)[C@@H](O[C@H]7[C@H](O)[C@@H](OC)[C@@H](O[C@H]8[C@H](O)[C@@H](OC)[C@@H](O[C@H]1[C@H](O)[C@H]2OC)O[C@@H]8COC)O[C@@H]7COC)O[C@@H]6COC)O[C@@H]5COC)O[C@@H]4COC)O[C@@H]3COC [Heptakis, heptakis (2,6-di-O-methyl)-β-cyclodextrin]	stimulated	stimulated	–	–	–	–	–
OC[C@H]1O[C@@H]2O[C@H]3[C@H](O)[C@@H](O)[C@@H](O[C@H]4[C@H](O)[C@@H](O)[C@@H](O[C@H]5[C@H](O)[C@@H](O)[C@@H](O[C@H]6[C@H](O)[C@@H](O)[C@@H](O[C@H]7[C@H](O)[C@@H](O)[C@@H](O[C@H]1[C@H](O)[C@H]2O)O[C@@H]7CO)O[C@@H]6CO)O[C@@H]5CO)O[C@@H]4CO)O[C@@H]3CO [alpha cyclodextrin]	–	–	increased	protected the larvae against the LPS	–	–	–
OC[C@H]1O[C@@H]2O[C@H]3[C@H](O)[C@@H](O)[C@@H](O[C@H]4[C@H](O)[C@@H](O)[C@@H](O[C@H]5[C@H](O)[C@@H](O)[C@@H](O[C@H]6[C@H](O)[C@@H](O)[C@@H](O[C@H]7[C@H](O)[C@@H](O)[C@@H](O[C@H]8[C@H](O)[C@@H](O)[C@@H](O[C@H]1[C@H](O)[C@H]2O)O[C@@H]8CO)O[C@@H]7CO)O[C@@H]6CO)O[C@@H]5CO)O[C@@H]4CO)O[C@@H]3CO [beta cyclodextrin]	–	–	increased	protected the larvae against the LPS	potent stimulator of inflammatory gene expression	No effect on viability	IL-1B
OC[C@H]1O[C@@H]2O[C@H]3[C@H](O)[C@@H](O)[C@@H](O[C@H]4[C@H](O)[C@@H](O)[C@@H](O[C@H]5[C@H](O)[C@@H](O)[C@@H](O[C@H]6[C@H](O)[C@@H](O)[C@@H](O[C@H]7[C@H](O)[C@@H](O)[C@@H](O[C@H]8[C@H](O)[C@@H](O)[C@@H](O[C@H]9[C@H](O)[C@@H](O)[C@@H](O[C@H]1[C@H](O)[C@H]2O)O[C@@H]9CO)O[C@@H]8CO)O[C@@H]7CO)O[C@@H]6CO)O[C@@H]5CO)O[C@@H]4CO)O[C@@H]3CO [gamma cyclodextrin]	most effective form	–	–	–	–	–	–
